Assay results taken from ChEMBL document CHEMBL5042482, “Novel Allosteric Inhibitors of Deoxyhypusine Synthase against Malignant Melanoma: Design, Synthesis, and Biological Evaluation” (J Med Chem, 2021).
≈ marks a conversion by molar mass, not a printed value.

How the values were obtained:
B16 = test: Cytotoxicity against mouse B16 cells assessed as reduction in cell viability incubated for 24 hrs by CCK-8 assay; type: functional, cell-based; details: B16, 24 h
A-375 [1] = test: Cytotoxicity against human A-375 cells assessed as reduction in cell viability incubated for 24 hrs by CCK-8 assay; type: functional, cell-based; details: A-375, 24 h
Deoxyhypusine synthase = molecular target: T1, Deoxyhypusine synthase (Homo sapiens, UniProt P49366); test: Inhibition of DHPS (unknown origin ) incubated for 30 mins by NAD/NADH-Glow assay
T1 sequence (P49366 whole entry): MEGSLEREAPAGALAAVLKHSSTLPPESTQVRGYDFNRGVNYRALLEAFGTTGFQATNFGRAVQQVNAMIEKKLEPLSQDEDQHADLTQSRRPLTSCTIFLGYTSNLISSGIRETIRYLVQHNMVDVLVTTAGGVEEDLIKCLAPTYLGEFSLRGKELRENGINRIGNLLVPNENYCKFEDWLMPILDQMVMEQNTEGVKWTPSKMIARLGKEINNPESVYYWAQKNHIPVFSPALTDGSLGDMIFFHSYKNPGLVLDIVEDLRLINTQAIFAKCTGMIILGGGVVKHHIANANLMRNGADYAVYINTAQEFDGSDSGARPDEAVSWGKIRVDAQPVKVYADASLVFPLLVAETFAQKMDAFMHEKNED

SK-MEL-28 = test: Cytotoxicity against human SK-MEL-28 cells assessed as reduction in cell viability incubated for 24 hrs by CCK-8 assay; type: functional, cell-based; details: SK-MEL-28, 24 h
[2] = (§1) Cytotoxicity against human HaCaT cells assessed as reduction in cell viability incubated for 24 hrs by CCK-8 assay; type: toxicity, cell-based; details: HaCaT cells
HaCaT = test: as §1; type: toxicity, cell-based; details: hacat, 24 h
[3] = Toxicity in Sprague-Dawley rat assessed as effect on serum CRE level at 160 mg/kg, ip (19.43 to 64.97 micromol/L); type: organism-based; details: in vivo
[4] = Aqueous solubility of compound; type: physicochemical; details: buffer
[5] = Acute toxicity in zebra fish assessed as lethal concentration measured for 96 hrs; set-up: species or system Danio rerio; details: zebrafish
[6] = Effect on intracellular ROS content in human HaCaT cells by DCFH-DA staining-based method; type: toxicity, cell-based
[7] = Toxicity in Sprague-Dawley rat assessed as effect on serum AST level at 160 mg/kg, ip (reference value: 69.70 to 332.90 U/L); type: organism-based; details: in vivo
[8] = Clearance in Sprague-Dawley rat at 160 mg/kg, ip by UHPLC-MS analysis; type: ADME, organism-based; details: in vivo
A-375 [9] = test: Anticancer activity against human A-375 cells xenografted in BALB/c mouse assessed as tumor growth inhibition at 80 mg/kg, ip treated every 3 days measured after 3 weeks relative to control; type: functional; details: A-375, ip, 504 h, read-out: TGI
[10] = Toxicity in Sprague-Dawley rat assessed as effect on serum ALT level at 160 mg/kg, ip (reference value: 33.70 to 98.70 U/L); type: organism-based; details: in vivo
[11] = AUC (0 to t) in Sprague-Dawley rat at 160 mg/kg, ip by UHPLC-MS analysis; type: ADME, organism-based; set-up: dose 160 mg/kg; details: in vivo
[12] = Half life in Sprague-Dawley rat at 160 mg/kg, ip by UHPLC-MS analysis; type: ADME, organism-based; details: in vivo
[13] = Toxicity in Sprague-Dawley rat assessed as effect on serum Glu level at 160 mg/kg, ip (reference value: 2.65 to 7.65 mmol/L); type: organism-based; details: in vivo
[14] = AUC (0 to infinity) in Sprague-Dawley rat at 160 mg/kg, ip by UHPLC-MS analysis; type: ADME, organism-based; set-up: route intraperitoneal, time infinity, dose 160 mg/kg; details: in vivo
[15] = Volume of distribution in Sprague-Dawley rat at 160 mg/kg, ip by UHPLC-MS analysis; type: ADME, organism-based; details: in vivo

Row | SMILES | IC50 (B16) [µM] | IC50 (A-375 [1]) [µM] | IC50 (Deoxyhypusine synthase) [µM] | IC50 (SK-MEL-28) [µM] | CC50 at 24 h [2] [µM] | other results
1 | N=C(N)NCCCCCCCN | 5.25 | 1.48 | 1.72 | 0.79 | 3.96 | 
2 | COc1ccccc1Oc1c(N)nc(-c2cccc(C)c2)nc1Cl | 13.1 | 65.3 | 33.7 | 54 | 11.2 | 
3 | COc1ccccc1Oc1c(N)nc(-c2cccc(I)c2)nc1OCCO | 20.3 | 1.23 | 0.56 | 11.2 |  | 
4 | COc1ccccc1Oc1c(N)nc(-c2cccc(Br)c2)nc1Cl | 24.6 |  | 35.8 |  | 16.1 | 
5 | COc1ccccc1Oc1c(N)nc(-c2cccc(Cl)c2)nc1OCCO | 5.01 | 30.2 | 4.42 | 4.17 |  | 
6 | COc1ccccc1Oc1c(N)nc(Cc2ccccc2)nc1Cl | 39.1 | 15.7 | 0.05 | 8.65 | 30.6 | 
7 | COc1ccccc1Oc1c(N)nc(-c2cccc(C)c2)nc1OCCO | 70.9 | 1.38 | 1.17 | 14.7 |  | 
8 | COc1ccccc1Oc1c(N)nc(-c2ccc(Cl)cc2)nc1Cl | 18.8 | 1.03 | 0.1 | 0.12 |  | 
9 | COc1ccc(-c2nc(N)c(Oc3ccccc3OC)c(OCCO)n2)cc1 | 18.1 |  |  |  |  | 
10 | COc1ccccc1Oc1c(N)nc(-c2cccc(F)c2)nc1OCCO | 20.9 | 8.53 | 0.33 | 3.21 |  | 
11 | COc1ccccc1Oc1c(N)nc(-c2ccccc2F)nc1OCCO | 11.8 | > 80 | 5.43 |  | 39.5 | 
12 | COc1cccc(-c2nc(N)c(Oc3ccccc3OC)c(Cl)n2)c1 | 23.6 | 24.6 | 0.04 |  | 14 | 
13 | COc1ccccc1Oc1c(N)nc(-c2ccc(F)cc2)nc1OCCO | 30.1 | 15.9 | 2.38 | 20.1 | 15.1 | 
14 | COc1ccccc1Oc1c(N)nc(-c2cccc(Br)c2)nc1OCCO | 21.9 | 0.65 | 4.31 | 4.04 |  | 
15 | COc1ccccc1Oc1c(N)nc(-c2ccc(Cl)cc2)nc1OCCO | 7.74 | > 80 | 38.1 | > 80 |  | 
16 | COc1ccccc1Oc1c(N)nc(-c2ccc(F)cc2)nc1Cl | 2.99 | 28.2 | 0.64 | 31.9 | 42.6 | 

Row | SMILES | IC50 (B16) [µM] | IC50 (A-375 [1]) [µM] | IC50 (Deoxyhypusine synthase) [µM] | IC50 (SK-MEL-28) [µM] | CC50 at 24 h [2] [µM] | other results
17 | COc1ccccc1Oc1c(N)nc(-c2ccccc2F)nc1Cl | 13.8 | > 80 | 12.9 |  | > 80 | 
18 | COc1ccccc1Oc1c(N)nc(-c2ccc(C)cc2)nc1Cl | 17.4 | > 80 | 59.1 |  | 6.3 | 
19 | COc1ccccc1Oc1c(N)nc(-c2ccccc2)nc1OCCO | 31.1 | > 80 | 53.7 | > 80 |  | 
20 | COc1ccccc1Oc1c(N)nc(-c2ccc(C)cc2)nc1OCCO | 8.43 | 2.38 | 0.18 | 6.19 | 56.6 | 
21 | COc1ccccc1Oc1c(N)nc(-c2cccc(Cl)c2)nc1Cl | 17.9 | 38.3 | 20 | 19.4 | > 80 | 
22 | COc1ccccc1Oc1c(N)nc(-c2ccc(I)cc2)nc1OCCO | 19.6 |  | 2.29 |  |  | 
23 | COc1ccccc1Oc1c(N)nc(Cc2ccccc2)nc1OCCO | 47.4 | 0.2 | 0.32 | 14 |  | 
24 | COc1ccccc1Oc1c(N)nc(-c2ccccc2)nc1Cl | 4.61 | 7.22 | 0.53 | 3.14 |  | CC50 (HaCaT): Not Active
25 | COc1ccccc1Oc1c(N)nc(-c2ccc(I)cc2)nc1Cl | 5.4 | 0.48 | 0.18 | 1.25 |  | 
26 | COc1ccccc1Oc1c(N)nc(-c2ccc(Br)cc2)nc1Cl | 4.44 | 0.063 | 0.014 | 0.014 | 58.6 | Activity [3]: 24.375 µmol/L; logS0 [4]: -4.416; LC50 at 96 h [5]: 3750 µg/mL (≈ 9.23 mM); Activity [6]: Non-Toxic; Activity [7]: 113.1 U/L; CL/F [8]: 743 mL/min/kg; inhibition in vivo at 80 mg/kg (A-375 [9]): 50.3%; Activity [10]: 80.47 U/L; AUC(0-t) [11]: 2400 ng·h/mL; half-life [12]: 220 min; Activity [13]: 4.345 mmol/L; AUC(0-inf) [14]: 5660 ng·h/mL; Vd [15]: 228.602 L/kg
27 | COc1cccc(-c2nc(N)c(Oc3ccccc3OC)c(OCCO)n2)c1 | 30.4 |  | 80 |  | 12.7 | 
28 | COc1ccccc1Oc1c(N)nc(-c2ccc(Br)cc2)nc1OCCO | 11.8 | 10.3 | 11.8 | 4.4 |  | 
29 | COc1ccc(-c2nc(N)c(Oc3ccccc3OC)c(Cl)n2)cc1 | 47.8 | > 80 | 18.2 |  | 8.2 | 
30 | COc1ccccc1Oc1c(N)nc(-c2cccc(I)c2)nc1Cl | 27.6 | 2.2 | 38.7 | 4.66 |  | 
31 | COc1ccccc1Oc1c(N)nc(-c2cccc(F)c2)nc1Cl | 21.7 |  |  |  | 17 | 
32 | COc1ccccc1Oc1c(NS(=O)(=O)c2ccc(C(C)(C)C)cc2)nc(-c2ncccn2)nc1OCCO [BOSENTAN] | > 80 | 67.4 | 60.8 | 53.6 |  | 
